Measurements published in US20230159467A1, “NOVEL COMPOUNDS USEFUL IN THE TREATMENT AND/OR PREVENTION OF A DISEASE, DISORDER OR CONDITION ASSOCIATED WITH ANGIOTENSIN II” (Vicore Pharma AB, priority 2020, published 2023).

Experiments:
CYP2B6 = target: T1, CYP2B6 (Homo sapiens, UniProt P20813); experiment: CYP450 inhibition assay, pooled human liver microsomes, bupropion substrate; conditions: for inhibition at 10 min, 10 µM: both, human, pooled human liver microsomes, pH 7.4, probe bupropion; for CYP 450 Inhibition CYP2B6: at 10 μM
T1 sequence (P20813 1-491): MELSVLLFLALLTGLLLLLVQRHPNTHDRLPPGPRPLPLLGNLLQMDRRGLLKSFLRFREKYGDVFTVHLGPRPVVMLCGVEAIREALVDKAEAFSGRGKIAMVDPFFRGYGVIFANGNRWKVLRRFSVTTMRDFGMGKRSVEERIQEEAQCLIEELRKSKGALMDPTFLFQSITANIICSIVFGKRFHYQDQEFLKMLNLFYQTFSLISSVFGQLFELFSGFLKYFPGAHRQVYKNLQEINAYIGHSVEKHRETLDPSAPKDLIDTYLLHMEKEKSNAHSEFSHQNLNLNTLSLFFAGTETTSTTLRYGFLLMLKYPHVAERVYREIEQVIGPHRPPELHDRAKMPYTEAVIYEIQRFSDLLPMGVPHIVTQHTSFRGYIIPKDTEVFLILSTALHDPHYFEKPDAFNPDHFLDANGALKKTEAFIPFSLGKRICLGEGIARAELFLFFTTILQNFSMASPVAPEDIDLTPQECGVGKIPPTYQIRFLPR

human AT1R = target: T2, human AT1R (Homo sapiens, UniProt P30556); assay type: binding; conditions: HEK-293 cell membranes
T2 construct: host or cells: HEK-293
T2 sequence (P30556 1-359): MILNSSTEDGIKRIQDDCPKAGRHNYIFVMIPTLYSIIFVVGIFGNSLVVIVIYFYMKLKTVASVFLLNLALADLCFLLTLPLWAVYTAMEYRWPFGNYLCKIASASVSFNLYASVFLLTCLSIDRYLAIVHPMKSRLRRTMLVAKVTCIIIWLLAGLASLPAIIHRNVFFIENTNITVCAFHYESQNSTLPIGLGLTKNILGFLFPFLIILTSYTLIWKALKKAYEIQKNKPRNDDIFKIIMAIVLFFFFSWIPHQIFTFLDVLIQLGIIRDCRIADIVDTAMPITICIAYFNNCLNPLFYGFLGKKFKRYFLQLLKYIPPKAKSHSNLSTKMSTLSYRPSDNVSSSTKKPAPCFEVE

CYP2D6 = CYP2D6 (Homo sapiens, UniProt P10635); experiment: CYP450 inhibition assay, pooled human liver microsomes, dextromethorphan substrate; conditions: for inhibition at 10 min, 10 µM: both, human, pooled human liver microsomes, pH 7.4, probe dextromethorphan; for CYP 450 Inhibition CYP2D6: at 10 μM
[1] = Stability in mouse liver microsomes; assay type: in vitro ADME; conditions: half-life
Description: Stability in liver microsomes. Human, mouse and rat liver microsomes were used to assess the metabolic stability for the compounds. Metabolic stability was determined in 0.5 mg/mL human, mouse or rat liver microsomes at a compound concentration of 1 μM in 100 mM potassium phosphate buffer (pH 7.4) in a total incubation volume of 500 μL by Eurofins. The assay matrix was: human liver microsomes: mixed gender and pool of 50, rat liver microsomes: male, Sprague-Dawley, pool of 100 or more and mouse liver microsomes: male,CD-1, pool of 250 or more. Final microsomal protein concentration: 0.1mg/mL. The test concentration was 0.1 μM with 0.01% DMSO, 0.25% acetonitrile and 0.25% methanol by default. […] The reaction was initiated by adding NADPH-generating system and was incubated for 0, 15, 30, 45, and 60 min. The reaction was stopped by transferring the incubation mixture to acetonitrile/methanol. Samples were then mixed and centrifuged. Four reference compounds were tested in each assay. Propranolol and imipramine are relatively stable, whereas verapamil and terfenadine are readily metabolized inhuman liver microsomes. Samples were analyzed by HPLC-MS/MS using selected reaction monitoring. The HPLC system consisted of a binary LC pump with autosampler, a C-18 column, and a gradient. Peak areas corresponding to the test compound were recorded. The compound remaining was calculated by comparing the peak area at each time point to time zero. The half-life was calculated from the slope of the initial linear range of the logarithmic curve of compound remaining (%) vs. time, assuming first order kinetics. In addition, the intrinsic clearance (Clint) was calculated.^19,20

CYP2C8 = target: T3, CYP2C8 (Homo sapiens, UniProt P10632); experiment: CYP450 inhibition assay, pooled human liver microsomes, amodiaquine substrate; conditions: for inhibition at 10 min, 10 µM: both, human, pooled human liver microsomes, pH 7.4, probe amodiaquine; for CYP 450 Inhibition CYP2C8: at 10 μM
T3 sequence (P10632 1-490): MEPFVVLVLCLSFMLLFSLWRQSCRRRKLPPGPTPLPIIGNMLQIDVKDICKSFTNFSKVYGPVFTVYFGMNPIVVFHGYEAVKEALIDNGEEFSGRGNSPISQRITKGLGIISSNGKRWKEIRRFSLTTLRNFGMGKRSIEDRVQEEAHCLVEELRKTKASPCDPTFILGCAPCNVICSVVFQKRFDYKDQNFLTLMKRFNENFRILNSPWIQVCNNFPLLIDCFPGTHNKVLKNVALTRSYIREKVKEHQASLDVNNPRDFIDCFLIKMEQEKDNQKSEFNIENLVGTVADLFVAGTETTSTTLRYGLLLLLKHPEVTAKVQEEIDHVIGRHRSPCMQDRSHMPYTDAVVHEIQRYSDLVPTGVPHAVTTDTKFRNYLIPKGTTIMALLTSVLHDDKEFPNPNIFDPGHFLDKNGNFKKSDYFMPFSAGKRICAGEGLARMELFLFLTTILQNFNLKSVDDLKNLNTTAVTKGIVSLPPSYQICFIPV

[2] = Stability in human liver microsomes; assay type: in vitro ADME; conditions: half-life
In short: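 Pooled liver microsomes (human mixed gender; male Sprague-Dawley rat; male CD-1 mouse) at final 0.1 mg/mL protein, compound 0.1 μM, 100 mM potassium phosphate pH 7.4, NADPH-initiated, sampled 0–60 min. Parent remaining by HPLC-MS/MS vs time zero; half-life from log-linear slope assuming first-order kinetics, plus Clint.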

Chain of CYP2D6 (P10635 whole entry): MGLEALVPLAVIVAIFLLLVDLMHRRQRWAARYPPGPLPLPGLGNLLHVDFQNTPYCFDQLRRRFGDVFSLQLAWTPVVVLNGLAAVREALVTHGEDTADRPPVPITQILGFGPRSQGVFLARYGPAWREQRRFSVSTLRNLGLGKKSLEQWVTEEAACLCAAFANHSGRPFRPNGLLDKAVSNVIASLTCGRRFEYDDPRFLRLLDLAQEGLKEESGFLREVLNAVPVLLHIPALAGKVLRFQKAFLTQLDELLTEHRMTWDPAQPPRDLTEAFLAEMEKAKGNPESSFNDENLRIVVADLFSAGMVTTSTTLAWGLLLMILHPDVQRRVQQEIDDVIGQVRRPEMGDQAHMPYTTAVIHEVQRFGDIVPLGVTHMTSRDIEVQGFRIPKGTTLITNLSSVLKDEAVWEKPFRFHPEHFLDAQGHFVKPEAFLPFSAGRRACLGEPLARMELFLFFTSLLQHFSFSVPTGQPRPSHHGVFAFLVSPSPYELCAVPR

SMILES | inhibition at 10 min, 10 µM (CYP2B6) | Ki (human AT1R) | inhibition at 10 min, 10 µM (CYP2D6) | Stability in liver microsomes MLM [1] | inhibition at 10 min, 10 µM (CYP2C8) | Stability in liver microsomes HLM [2] | CYP 450 Inhibition CYP2B6 (CYP2B6) | CYP 450 Inhibition CYP2D6 (CYP2D6) | CYP 450 Inhibition CYP2C8 (CYP2C8)
COC(=O)[N-]S(=O)(=O)c1ccc(CC(C)C)cc1-c1ccc(Cn2ccnc2C(C)(C)O)cc1.[K+] [Example 8B, Potassium ((4′-((2-(2-hydroxypropan-2-yl)-1H-imidazol-1-yl)methyl)-5-isobutyl-[1,1′-biphenyl]-2-yl)sulfonyl)(methoxycarbonyl)amide] | 28% | ~1000 nM | 2.5% | >60 min | 64% | >60 min | – | – | –
CCCCOC(=O)NS(=O)(=O)c1sc(CC(C)C)nc1-c1ccc(Cn2ccnc2C(C)(C)C)cc1 [Example 4, Butyl ((4-(4-((2-(tert-butyl)-1H-imidazol-1-yl)methyl)phenyl)-2-isobutylthiazol-5-yl)sulfonyl) carbamate] | – | ~1000 nM | – | 7 min | – | 45 min | 29% | 12% | 70%
COC(=O)NS(=O)(=O)c1ccc(CC(C)C)cc1-c1ccc(Cn2ccnc2C(C)(C)C)cc1 [Example 1A, Methyl ((4′-((2-(tert-butyl)-1H-imidazol-1-yl)methyl)-5-isobutyl-[1,1′-biphenyl]-2-yl)sulfonyl)carbamate] | 18% | ~1000 nM | 9% | >60 min | 67% | >60 min | – | – | –
COC(=O)NS(=O)(=O)c1sc(CC(C)C)nc1-c1ccc(Cn2ccnc2C(C)(C)C)cc1 [Example 3, Methyl ((4-(4-((2-(tert-butyl)-1H-imidazol-1-yl)methyl)phenyl)-2-isobutylthiazol-5-yl)sulfonyl) carbamate] | – | ~1000 nM | – | >60 min | – | >60 min | 24% | 12% | 26%
CCCCOC(=O)[N-]S(=O)(=O)c1sc(CC(C)C)cc1-c1ccc(Cn2ccnc2C(C)(C)C)cc1.[K+] [Example 11B, Potassium (butoxycarbonyl)((3-(4-((2-(tert-butyl)-1H-imidazol-1-yl)methyl)phenyl)-5-isobutylthiophen-2-yl)sulfonyl)amide] | 51% | ~1000 nM | 14% | 10 min | 81% | 11 min | – | – | –
